According to patent publication US6620828B2, “Thiazole compounds and pharmaceutical compositions for inhibiting protein kinases and methods for their use” (Agouron Pharmaceuticals, Inc., priority 1999, dated 2003):

Tested on: human umbilical vein endothelial cells (HUVEC)
Assay: HUVEC proliferation assay
Format: cell-based
Settings: Homo sapiens, HUVEC, Table I screening results; 150 nM; crude combinatorial amide library
In short: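 Readout was MTT dye reduction (A595) after 72 h of stimulation with VEGF at 6 ng/ml final. Compound, in 0.1% DMSO final, was added 1 h before VEGF to HUVEC starved 24 h in 1% FBS. % inhibition was scaled between VEGF-alone and unstimulated wells; IC50 was fitted from triplicate dose curves.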

SMILES | inhibition at 0.15 µM [%]
COc1cc(Nc2nc(N)c(-c3nc(-c4cccc(NC(=O)Cc5ccc6c(c5)OCO6)c4)cs3)s2)cc(OC)c1OC | 46
COC(=O)c1ccc(C(=O)Nc2cccc(-c3csc(-c4sc(Nc5cc(OC)c(OC)c(OC)c5)nc4N)n3)c2)cc1 | 23
COc1cc(Nc2nc(N)c(-c3nc(-c4cccc(NC(=O)CCC(C)C)c4)cs3)s2)cc(OC)c1OC | 39
COc1cc(Nc2nc(N)c(-c3nc(-c4cccc(NC(=O)c5cccc(C#N)c5)c4)cs3)s2)cc(OC)c1OC | 56
COc1cc(Nc2nc(N)c(-c3nc(-c4cccc(NC(=O)c5ccc(C#N)cc5)c4)cs3)s2)cc(OC)c1OC | 34
COc1cc(Nc2nc(N)c(-c3nc(-c4cccc(NC(=O)Cc5ccccc5Cl)c4)cs3)s2)cc(OC)c1OC | 34
COc1cc(Nc2nc(N)c(-c3nc(-c4cccc(NC(=O)c5ccc(SC)cc5)c4)cs3)s2)cc(OC)c1OC | 31
COc1cc(Nc2nc(N)c(-c3nc(-c4cccc(NC(=O)c5cnc(Cl)c(Cl)c5)c4)cs3)s2)cc(OC)c1OC | 20
COc1ccc(CCC(=O)Nc2cccc(-c3csc(-c4sc(Nc5cc(OC)c(OC)c(OC)c5)nc4N)n3)c2)cc1OC | 23
COc1ccccc1CC(=O)Nc1cccc(-c2csc(-c3sc(Nc4cc(OC)c(OC)c(OC)c4)nc3N)n2)c1 | 58
COc1cc(CC(=O)Nc2cccc(-c3csc(-c4sc(Nc5cc(OC)c(OC)c(OC)c5)nc4N)n3)c2)cc(OC)c1OC | 29
COc1cc(Nc2nc(N)c(-c3nc(-c4cccc(NC(=O)Cc5ccc(F)cc5)c4)cs3)s2)cc(OC)c1OC | -7
COc1cc(Nc2nc(N)c(-c3nc(-c4cccc(NC(=O)CCOc5ccccc5)c4)cs3)s2)cc(OC)c1OC | 11
COc1cc(Nc2nc(N)c(-c3nc(-c4cccc(NC(=O)/C=C/c5ccc(Cl)cc5)c4)cs3)s2)cc(OC)c1OC | 40
COc1ccccc1/C=C\C(=O)Nc1cccc(-c2csc(-c3sc(Nc4cc(OC)c(OC)c(OC)c4)nc3N)n2)c1 | 53
COc1cc(Nc2nc(N)c(-c3nc(-c4cccc(NC(=O)C(Cc5ccccc5)c5ccccc5)c4)cs3)s2)cc(OC)c1OC (centres unmarked) | 11
COc1cc(Nc2nc(N)c(-c3nc(-c4cccc(NC(=O)CCC5CCCC5)c4)cs3)s2)cc(OC)c1OC | 85
COc1cc(Nc2nc(N)c(-c3nc(-c4cccc(NC(=O)C(=O)Cc5ccccc5)c4)cs3)s2)cc(OC)c1OC | 20

SMILES | inhibition at 0.15 µM [%]
C/C=C/CC(=O)Nc1cccc(-c2csc(-c3sc(Nc4cc(OC)c(OC)c(OC)c4)nc3N)n2)c1 | 38
COc1cc(Nc2nc(N)c(-c3nc(-c4cccc(NC(=O)C5C(C=C(C)C)C5(C)C)c4)cs3)s2)cc(OC)c1OC (centres unmarked) | 19
COc1cc(Nc2nc(N)c(-c3nc(-c4cccc(NC(=O)c5ccc(C)c(Br)c5)c4)cs3)s2)cc(OC)c1OC | 86
COc1ccc(C(=O)Nc2cccc(-c3csc(-c4sc(Nc5cc(OC)c(OC)c(OC)c5)nc4N)n3)c2)cc1F | 51
COc1cc(Nc2nc(N)c(-c3nc(-c4cccc(NC(=O)c5scc(S(=O)(=O)c6ccc(Cl)cc6)c5C)c4)cs3)s2)cc(OC)c1OC | 10
COc1cc(Nc2nc(N)c(-c3nc(-c4cccc(NC(=O)C5CCCC5)c4)cs3)s2)cc(OC)c1OC | 12
CCOC(=O)/C=C/C(=O)Nc1cccc(-c2csc(-c3sc(Nc4cc(OC)c(OC)c(OC)c4)nc3N)n2)c1 | 27
COc1cc(Nc2nc(N)c(-c3nc(-c4cccc(NC(=O)Cc5cccc(C)c5)c4)cs3)s2)cc(OC)c1OC | 75
COc1cc(Nc2nc(N)c(-c3nc(-c4cccc(NC(=O)C5C6CC7C(C6=O)C75)c4)cs3)s2)cc(OC)c1OC (centres unmarked) | -6
COc1cc(Nc2nc(N)c(-c3nc(-c4cccc(NC(=O)c5ccc6c(c5)OC(F)(F)O6)c4)cs3)s2)cc(OC)c1OC | 72
COc1cc(Nc2nc(N)c(-c3nc(-c4cccc(NC(=O)C5CC(=O)N5)c4)cs3)s2)cc(OC)c1OC (centres unmarked) | -2
CCOC(=O)c1cc(C(=O)Nc2cccc(-c3csc(-c4sc(Nc5cc(OC)c(OC)c(OC)c5)nc4N)n3)c2)cc(C(=O)OCC)c1 | 6
COc1cc(Nc2nc(N)c(-c3nc(-c4cccc(NC(=O)c5cc6c(cc5C)C(C)(C)C(C)CC6(C)C)c4)cs3)s2)cc(OC)c1OC (centres unmarked) | 7
COc1cc(Nc2nc(N)c(-c3nc(-c4cccc(NC(=O)c5ccc6c(c5)C(=O)N(C)C6=O)c4)cs3)s2)cc(OC)c1OC | -3
COc1cc(Nc2nc(N)c(-c3nc(-c4cccc(NC(=O)c5ccc6c(c5)C(=O)NC6=O)c4)cs3)s2)cc(OC)c1OC | -6
COc1cc(Nc2nc(N)c(-c3nc(-c4cccc(NC(=O)C#Cc5ccccc5)c4)cs3)s2)cc(OC)c1OC | -25
COc1cc(Nc2nc(N)c(-c3nc(-c4cccc(NC(=O)Cc5ccccc5F)c4)cs3)s2)cc(OC)c1OC | 21
